Assay results taken from paper PMC5218480 (PLoS ONE, 2017).

Tested on: MV-4-11 cells
Test: Gene expression microarray analysis (Affymetrix PrimeView) and GSEA
Assay type: cell-based, human
Parameters: RFU PODN (11730768_x_at) / Fold change /veh PODN (11730768_x_at) / RFU LINC00158 (11744669_a_at) / Fold change /veh LINC00158 (11744669_a_at) / RFU DUSP10 (11751237_a_at) / Fold change /veh DUSP10 (11751237_a_at) / RFU ID3 (11757404_x_at) / Fold change /veh ID3 (11757404_x_at) / RFU PLEKHG5 (11737974_s_at) / Fold change /veh PLEKHG5 (11737974_s_at) / RFU LRRC4B (11730491_at) / Fold change /veh LRRC4B (11730491_at) / RFU GIMAP4 (11747438_a_at) / Fold change /veh GIMAP4 (11747438_a_at) / RFU KRT8 (11758183_x_at) / Fold change /veh KRT8 (11758183_x_at) / RFU CNN1 (11734310_a_at) / Fold change /veh CNN1 (11734310_a_at) / RFU VPS37D (11726825_at) / Fold change /veh VPS37D (11726825_at) / RFU C10orf10 (11716522_x_at) / Fold change /veh C10orf10 (11716522_x_at) / RFU KIR2DL2 /// KIR2DL4 /// KIR2DL5A /// KIR2DL5B /// KIR2DS1 /// KIR2DS2 /// KIR2DS3 /// KIR2DS4 /// KIR3DL3 /// KIR3DL3 /// KIR3DS1 (11738374_at) / Fold change /veh KIR2DL2 /// KIR2DL4 /// KIR2DL5A /// KIR2DL5B /// KIR2DS1 /// KIR2DS2 /// KIR2DS3 /// KIR2DS4 /// KIR3DL3 /// KIR3DL3 /// KIR3DS1 (11738374_at) / RFU C1QL1 (11718748_at) / Fold change /veh C1QL1 (11718748_at) / RFU TMPRSS4 (11747572_a_at) / Fold change /veh TMPRSS4 (11747572_a_at) / RFU HAMP (11756126_x_at) / Fold change /veh HAMP (11756126_x_at) / RFU RNFT2 (11725882_a_at) / Fold change /veh RNFT2 (11725882_a_at) / RFU NR4A2 (11747474_a_at) / Fold change /veh NR4A2 (11747474_a_at) / RFU ABCC12 (11746883_a_at) / Fold change /veh ABCC12 (11746883_a_at) / RFU TMEM136 (11760407_x_at) / Fold change /veh TMEM136 (11760407_x_at) / RFU CLDN22 /// WWC2 (11732394_at) / Fold change /veh CLDN22 /// WWC2 (11732394_at) / RFU HLA-DPB1 (11760878_x_at) / Fold change /veh HLA-DPB1 (11760878_x_at) / RFU SPINT1 (11716480_a_at) / Fold change /veh SPINT1 (11716480_a_at) / RFU GAP43 (11754022_s_at) / Fold change /veh GAP43 (11754022_s_at) / RFU A4GNT (11735810_at) / Fold change /veh A4GNT (11735810_at) / RFU PRB3 (11715151_x_at) / Fold change /veh PRB3 (11715151_x_at) / RFU TUBB4B (11761932_at) / Fold change /veh TUBB4B (11761932_at) / RFU CAPN14 (11732068_a_at) / Fold change /veh CAPN14 (11732068_a_at) / RFU TMCC2 (11721928_a_at) / Fold change /veh TMCC2 (11721928_a_at) / RFU IRGQ (11745062_a_at) / Fold change /veh IRGQ (11745062_a_at) / RFU FAM174B (11720279_a_at) / Fold change /veh FAM174B (11720279_a_at) / RFU TMPRSS4 (11748680_a_at) / Fold change /veh TMPRSS4 (11748680_a_at) / RFU FAM212B (11763350_a_at) / Fold change /veh FAM212B (11763350_a_at) / RFU PLEKHG5 (11743358_a_at) / Fold change /veh PLEKHG5 (11743358_a_at) / RFU ZSCAN30 (11745921_a_at) / Fold change /veh ZSCAN30 (11745921_a_at) / RFU CMKLR1 (11741424_a_at) / Fold change /veh CMKLR1 (11741424_a_at) / RFU LOC101060620 /// MAPK8IP1 (11723275_at) / Fold change /veh LOC101060620 /// MAPK8IP1 (11723275_at) / RFU SPTSSB (11747773_x_at) / Fold change /veh SPTSSB (11747773_x_at) / RFU PRSS12 (11739890_at) / Fold change /veh PRSS12 (11739890_at) / RFU BIN1 (11741810_x_at) / Fold change /veh BIN1 (11741810_x_at) / RFU WNT11 (11732464_a_at) / Fold change /veh WNT11 (11732464_a_at) / RFU C10orf10 (11716521_a_at) / Fold change /veh C10orf10 (11716521_a_at) / RFU C5orf56 (11738089_at) / Fold change /veh C5orf56 (11738089_at) / RFU CYB561 (11721691_x_at) / Fold change /veh CYB561 (11721691_x_at) / RFU ANKRD19P (11752326_a_at) / Fold change /veh ANKRD19P (11752326_a_at) / RFU OR2T12 /// OR2T33 /// OR2T8 (11738714_s_at) / Fold change /veh OR2T12 /// OR2T33 /// OR2T8 (11738714_s_at) / RFU VCAN (11748164_a_at) / Fold change /veh VCAN (11748164_a_at) / RFU JSRP1 (11732532_at) / Fold change /veh JSRP1 (11732532_at) / RFU KRTAP10-11 (11738290_x_at) / Fold change /veh KRTAP10-11 (11738290_x_at) / RFU MYO3A (11730013_a_at) / Fold change /veh MYO3A (11730013_a_at) / RFU EBF3 (11725865_a_at) / Fold change /veh EBF3 (11725865_a_at) / RFU CAMK2N1 (11719241_x_at) / Fold change /veh CAMK2N1 (11719241_x_at) / RFU C5orf56 (11738088_a_at) / Fold change /veh C5orf56 (11738088_a_at) / RFU OLFML3 (11715873_a_at) / Fold change /veh OLFML3 (11715873_a_at) / RFU LOC100653217 /// NTM (11731650_a_at) / Fold change /veh LOC100653217 /// NTM (11731650_a_at) / RFU MAPK11 (11762145_a_at) / Fold change /veh MAPK11 (11762145_a_at) / RFU FIZ1 (11724087_x_at) / Fold change /veh FIZ1 (11724087_x_at) / RFU OASL (11726364_x_at) / Fold change /veh OASL (11726364_x_at) / RFU SOX15 (11748057_x_at) / Fold change /veh SOX15 (11748057_x_at) / RFU CD79A (11719716_a_at) / Fold change /veh CD79A (11719716_a_at) / RFU HIST1H1D (11736915_at) / Fold change /veh HIST1H1D (11736915_at) / RFU CASKIN2 (11723855_a_at) / Fold change /veh CASKIN2 (11723855_a_at) / RFU LOC730098 (11760151_x_at) / Fold change /veh LOC730098 (11760151_x_at) / RFU OR4N2 (11742367_at) / Fold change /veh OR4N2 (11742367_at) / RFU PRRT2 (11749266_a_at) / Fold change /veh PRRT2 (11749266_a_at) / RFU SNX32 (11753110_a_at) / Fold change /veh SNX32 (11753110_a_at) / RFU CDHR5 (11726645_a_at) / Fold change /veh CDHR5 (11726645_a_at) / RFU RCAN1 (11760418_a_at) / Fold change /veh RCAN1 (11760418_a_at) / RFU FAM167A (11723789_a_at) / Fold change /veh FAM167A (11723789_a_at) / RFU FAM26E (11764081_at) / Fold change /veh FAM26E (11764081_at) / RFU ISYNA1 (11749810_s_at) / Fold change /veh ISYNA1 (11749810_s_at) / RFU ACY1 (11761880_at) / Fold change /veh ACY1 (11761880_at) / RFU 11764098_at / Fold change /veh 11764098_at / RFU SAMD14 (11745864_x_at) / Fold change /veh SAMD14 (11745864_x_at) / RFU NPB (11741838_a_at) / Fold change /veh NPB (11741838_a_at) / RFU TMPRSS6 (11731388_a_at) / Fold change /veh TMPRSS6 (11731388_a_at) / RFU KRTAP10-2 (11738614_at) / Fold change /veh KRTAP10-2 (11738614_at) / RFU ARHGAP8 /// PRR5-ARHGAP8 (11727945_x_at) / Fold change /veh ARHGAP8 /// PRR5-ARHGAP8 (11727945_x_at) / RFU KRTAP5-7 /// NADSYN1 (11734609_at) / Fold change /veh KRTAP5-7 /// NADSYN1 (11734609_at) / RFU RASL12 (11751679_a_at) / Fold change /veh RASL12 (11751679_a_at) / RFU CDKN2B (11736163_a_at) / Fold change /veh CDKN2B (11736163_a_at) / RFU PRF1 (11729649_at) / Fold change /veh PRF1 (11729649_at) / RFU, ZNF638 /// ZNF638-IT1 / Fold change vs veh, ZNF638 /// ZNF638-IT1 / RFU, PANK3 / Fold change vs veh, PANK3 / RFU, SH3YL1 / Fold change vs veh, SH3YL1 / RFU, ZEB2 / Fold change vs veh, ZEB2 / RFU, NRIP1 / Fold change vs veh, NRIP1 / RFU, PTTG1IP / Fold change vs veh, PTTG1IP / RFU, CAPN2 / Fold change vs veh, CAPN2 / RFU, MED14 / Fold change vs veh, MED14 / RFU, SNORA58 / Fold change vs veh, SNORA58 / RFU, C1orf63 / Fold change vs veh, C1orf63 / RFU, LRRFIP1 / Fold change vs veh, LRRFIP1 / RFU, NDUFAF7 / Fold change vs veh, NDUFAF7 / RFU, SLC12A2 / Fold change vs veh, SLC12A2 / RFU, IBTK / Fold change vs veh, IBTK / RFU, ESF1 / Fold change vs veh, ESF1 / Fold change vs veh, TMEM50B / RFU, TAOK1 / Fold change vs veh, TAOK1 / RFU, ACBD3 / Fold change vs veh, ACBD3 / RFU, TMA16 / Fold change vs veh, TMA16 / RFU, RWDD3 / Fold change vs veh, RWDD3 / RFU, BCAT1 / Fold change vs veh, BCAT1 / RFU, EDEM3 / Fold change vs veh, EDEM3 / RFU, TMEM33 / Fold change vs veh, TMEM33 / RFU, WDR75 / Fold change vs veh, WDR75 / RFU, AHCTF1 / Fold change vs veh, AHCTF1 / RFU, TFRC / Fold change vs veh, TFRC / RFU, ZDHHC17 / Fold change vs veh, ZDHHC17 / RFU, NOM1 / Fold change vs veh, NOM1 / RFU, ARL8B / Fold change vs veh, ARL8B / RFU, ZBTB11 / Fold change vs veh, ZBTB11 / RFU, TAMM41 / Fold change vs veh, TAMM41 / RFU, KIAA1704 /// LOC100996395 / Fold change vs veh, KIAA1704 /// LOC100996395 / RFU, ING1 / Fold change vs veh, ING1 / RFU, TRMT61B / Fold change vs veh, TRMT61B / RFU, FUBP3 / Fold change vs veh, FUBP3 / RFU, TP53 / Fold change vs veh, TP53 / RFU, TNKS2 / Fold change vs veh, TNKS2 / RFU, ZFP14 / Fold change vs veh, ZFP14 / RFU, ACTR2 / Fold change vs veh, ACTR2 / RFU, PPP3R1 / Fold change vs veh, PPP3R1 / RFU, PIK3R1 / Fold change vs veh, PIK3R1 / RFU, HNRNPA1 / Fold change vs veh, HNRNPA1 / RFU, RNF170 / Fold change vs veh, RNF170 / RFU, ZNF28 / Fold change vs veh, ZNF28 / RFU, RNGTT / Fold change vs veh, RNGTT / RFU, OGT / Fold change vs veh, OGT / RFU, BRD1 / Fold change vs veh, BRD1 / RFU, MARS / Fold change vs veh, MARS / RFU, ZNF655 / Fold change vs veh, ZNF655 / RFU, FAHD1 / Fold change vs veh, FAHD1 / RFU, BDP1 / Fold change vs veh, BDP1 / RFU, LRRCC1 / Fold change vs veh, LRRCC1 / RFU, ARID1A / Fold change vs veh, ARID1A / RFU, ZNF146 / Fold change vs veh, ZNF146 / RFU, ZNF330 / Fold change vs veh, ZNF330 / RFU, GPN3 / Fold change vs veh, GPN3 / RFU, C9orf123 / Fold change vs veh, C9orf123 / RFU, N4BP2L2 / Fold change vs veh, N4BP2L2 / RFU, ARFIP1 / Fold change vs veh, ARFIP1 / RFU, FAM179B / Fold change vs veh, FAM179B / RFU, BCL10 / Fold change vs veh, BCL10 / RFU, UHRF1BP1L / Fold change vs veh, UHRF1BP1L / RFU, BET1 / Fold change vs veh, BET1 / RFU, CNOT2 / Fold change vs veh, CNOT2 / RFU, ZNF268 / Fold change vs veh, ZNF268 / Fold change vs veh, ZNF507 / RFU, DGCR2 / Fold change vs veh, DGCR2 / RFU, WDSUB1 / Fold change vs veh, WDSUB1 / Fold change vs veh, HSP90B1 /// MIR3652 / RFU, ADSS / Fold change vs veh, ADSS / RFU, GK / Fold change vs veh, GK / RFU, ZNF148 / Fold change vs veh, ZNF148 / RFU, TAF9 / Fold change vs veh, TAF9 / RFU, SLC1A5 / Fold change vs veh, SLC1A5 / RFU, SLMO2 / Fold change vs veh, SLMO2 / RFU, ABCC4 / Fold change vs veh, ABCC4 / RFU, LOC101060439 /// RAP1B / Fold change vs veh, LOC101060439 /// RAP1B / RFU, RFX7 / Fold change vs veh, RFX7 / RFU, GTPBP10 / Fold change vs veh, GTPBP10 / RFU, CNEP1R1 / Fold change vs veh, CNEP1R1 / RFU, BIVM-ERCC5 /// ERCC5 / Fold change vs veh, BIVM-ERCC5 /// ERCC5 / RFU, ILF3 / Fold change vs veh, ILF3 / RFU 11762660_at / Fold change /veh 11762660_at / RFU VCAN (11757783_s_at) / Fold change /veh VCAN (11757783_s_at) / RFU DDX43 (11728927_at) / Fold change /veh DDX43 (11728927_at) / RFU KRT8 (11758188_x_at) / Fold change /veh KRT8 (11758188_x_at) / RFU NKD1 (11759106_at) / Fold change /veh NKD1 (11759106_at) / RFU SRD5A1 (11742802_a_at) / Fold change /veh SRD5A1 (11742802_a_at) / RFU TPSAB1 /// TPSB2 (11721975_s_at) / Fold change /veh TPSAB1 /// TPSB2 (11721975_s_at) / RFU GSTM3 (11746129_a_at) / Fold change /veh GSTM3 (11746129_a_at) / RFU IL23R (11737362_x_at) / Fold change /veh IL23R (11737362_x_at) / RFU TMEM51 (11727254_a_at) / Fold change /veh TMEM51 (11727254_a_at) / RFU PIWIL2 (11732686_x_at) / Fold change /veh PIWIL2 (11732686_x_at) / RFU ORM1 (11744905_x_at) / Fold change /veh ORM1 (11744905_x_at) / RFU CCDC152 (11743942_at) / Fold change /veh CCDC152 (11743942_at) / RFU ECM1 (11717891_a_at) / Fold change /veh ECM1 (11717891_a_at) / RFU IL23R (11748794_a_at) / Fold change /veh IL23R (11748794_a_at) / RFU TNFAIP8L3 (11732012_x_at) / Fold change /veh TNFAIP8L3 (11732012_x_at) / RFU MBOAT4 (11741988_at) / Fold change /veh MBOAT4 (11741988_at) / RFU 11764193_at / Fold change /veh 11764193_at / RFU TMEM53 (11763286_at) / Fold change /veh TMEM53 (11763286_at) / RFU MAGEB2 (11727129_at) / Fold change /veh MAGEB2 (11727129_at) / RFU TMEM200A (11744735_a_at) / Fold change /veh TMEM200A (11744735_a_at) / RFU CCDC152 (11751479_a_at) / Fold change /veh CCDC152 (11751479_a_at) / RFU FAM211A (11726209_a_at) / Fold change /veh FAM211A (11726209_a_at) / RFU RGS16 (11746705_a_at) / Fold change /veh RGS16 (11746705_a_at) / RFU VCAN (11755009_s_at) / Fold change /veh VCAN (11755009_s_at) / RFU RHOB (11743442_s_at) / Fold change /veh RHOB (11743442_s_at) / RFU RGS16 (11720943_a_at) / Fold change /veh RGS16 (11720943_a_at) / RFU RGS16 (11720944_at) / Fold change /veh RGS16 (11720944_at) / RFU, VPS4B / Fold change vs veh, VPS4B / RFU, CREB1 / Fold change vs veh, CREB1 / RFU, DNAJC13 / Fold change vs veh, DNAJC13 / RFU, GNAQ / Fold change vs veh, GNAQ / RFU, CDK5R1 / Fold change vs veh, CDK5R1 / RFU, ZRANB3 / Fold change vs veh, ZRANB3 / RFU, CUL4A / Fold change vs veh, CUL4A / RFU, CCNY / Fold change vs veh, CCNY / RFU, UFL1 / Fold change vs veh, UFL1 / RFU, COG3 / Fold change vs veh, COG3 / RFU, DIAPH2 / Fold change vs veh, DIAPH2 / RFU, SKA2 / Fold change vs veh, SKA2 / RFU, AFF3 / Fold change vs veh, AFF3 / RFU, LMF1 / Fold change vs veh, LMF1 / RFU, IPO11 / Fold change vs veh, IPO11 / RFU, DFFB / Fold change vs veh, DFFB / RFU, FOXP1 / Fold change vs veh, FOXP1 / RFU, CARD8 / Fold change vs veh, CARD8 / RFU, STRN3 / Fold change vs veh, STRN3 / RFU, ADK / Fold change vs veh, ADK / RFU, RASSF2 / Fold change vs veh, RASSF2 / RFU, WIPF1 / Fold change vs veh, WIPF1 / RFU, LARP1B / Fold change vs veh, LARP1B / RFU, RASA1 / Fold change vs veh, RASA1 / RFU, RB1 / Fold change vs veh, RB1 / RFU, PPFIA1 / Fold change vs veh, PPFIA1 / RFU, MAT2A / Fold change vs veh, MAT2A / RFU, CCT5 / Fold change vs veh, CCT5 / RFU, WDR92 / Fold change vs veh, WDR92 / RFU, CUX1 / Fold change vs veh, CUX1 / RFU, TTC7A / Fold change vs veh, TTC7A / RFU, TMEM135 / Fold change vs veh, TMEM135 / RFU, DEPTOR / Fold change vs veh, DEPTOR / RFU, CPM / Fold change vs veh, CPM / RFU, DNAJB6 / Fold change vs veh, DNAJB6 / RFU, CACNA2D3 / Fold change vs veh, CACNA2D3 / RFU, DTX4 / Fold change vs veh, DTX4 / RFU, TFCP2 / Fold change vs veh, TFCP2 / RFU, GMCL1 /// GMCL1P1 / Fold change vs veh, GMCL1 /// GMCL1P1 / RFU, AEBP2 / Fold change vs veh, AEBP2 / RFU, SNHG1 /// SNORD22 /// SNORD25 /// SNORD26 /// SNORD27 /// SNORD28 /// SNORD29 /// SNORD31 / Fold change vs veh, SNHG1 /// SNORD22 /// SNORD25 /// SNORD26 /// SNORD27 /// SNORD28 /// SNORD29 /// SNORD31 / Fold change (Aza/veh), C12orf56 (ProbeSet 11735607_a_at) / Fold change (ACY-1035/veh), C12orf56 (ProbeSet 11735607_a_at) / Fold change (Aza/veh), FGFR1OP (ProbeSet 11751329_s_at) / Fold change (ACY-1035/veh), FGFR1OP (ProbeSet 11751329_s_at) / Fold change (Aza/veh), VPS36 (ProbeSet 11739960_a_at) / Fold change (ACY-1035/veh), VPS36 (ProbeSet 11739960_a_at) / RFU SYPL1 (11715823_x_at) / Fold change /veh SYPL1 (11715823_x_at) / RFU IGFBP7 (11715501_s_at) / Fold change /veh IGFBP7 (11715501_s_at) / RFU REEP3 (11722064_at) / Fold change /veh REEP3 (11722064_at) / RFU IGLL1 (11728026_x_at) / Fold change /veh IGLL1 (11728026_x_at): dose or concentration left out as unconfirmed
Settings: ProbeSet 11733108_at; LIST D

**Q.** For Nc1ncn([C@@H]2O[C@H](CO)[C@@H](O)[C@H]2O)c(=O)n1 [azacitidine], which “Fold change vs veh, GNAQ” value is on record?
**A.** The value was 0.77.
